Reference: EP1311531B1, “STEROID DERIVED ANTIBIOTICS” (Brigham Young University, priority 2000, dated 2002)
Values after ≈ are worked out from the molar mass of the structure shown. Where two headings read alike, the source gives them in different places. Blank lines part the entries; values can stand above or below the molecule they belong to.

Columns and labels:
[1] = system: E. coli (ATCC 10798); assay: MIC and MBC measurement; assay type: cell-based, Escherichia coli; settings: Escherichia coli, ATCC10798, Table 1, E. coli (ATCC 10798)
Protocol: (§1) General: Microorganisms. Reference strains were purchased from the American Type Culture Collection (Rockville, MD) or Bactrol disks from Difeo Laboratories (Detroit, MI). […] Bacterial strains were maintained on Mueller-Hinton agar plates, and Candida albicans was maintained on Sabouraud Dextrose agar plates.
(§2) Aliquots (20 mL) of the homogeneous solution were then poured in sterile plastic petri dishes (100 x 15 mm, Fisher Scientific). Solutions of compounds were made by dissolving the HCl salt of the respective compound into an appropriate amount of deionized and sterilized water followed by microfiltration.
(§3) Aliquots of 1 mL of the suspension were added to test tubes containing 1 mL TSB and incrementally varied concentrations of cholic acid derivatives and/or erythromycin or novobiocin. […] Additionally, an alliquot from each of the samples showing no measurable turbidity was subcultured on TSA plates (alliquots were diluted to provide fewer than 300 CFU). Colonies that grew on the subculture after overnight incubation were counted and the number of CFU/mL in the samples were calculated. The calculated values were compared to the number of CFU/mL in the original inoculum.

[2] = system: E. coli (ATCC 10798); assay: Sensitization to erythromycin or novobiocin (outer membrane permeabilization, FIC); assay type: cell-based, Escherichia coli; settings: E. coli (ATCC 10798); for MBC: Escherichia coli
Protocol: (§4) FICs can be performed by checkerboard titrations of compounds in one dimension of a microtiter plate, and of antibiotics in the other dimension, for example. The FIC is calculated by looking at the impact of one antibiotic on the MIC of the other and vice versa. […] Preferably, an FIC of less than 0.5 is obtained for synergism. As used herein, FIC can be determined as follows: FIC = (MIC(compound in combination))/(MIC(compound alone)) + (MIC(antibiotic in combination))/(MIC(antibiotic alone)) [formula]
(§5) Aliquots of 1 mL of the suspension were added to test tubes containing 1 mL TSB and incrementally varied concentrations of cholic acid derivatives and/or erythromycin or novobiocin. In the sensitization experiments, erythromycin or novobiocin were added 15 minutes later than the cholic acid derivatives. The samples were subjected to stationary incubation at 37°C for 24 hours. Sample turbidity was determined by measuring absorption at 760 nm (HP 8453 UV-Visible Chemstation, Hewlett Packard). Additionally, an alliquot from each of the samples showing no measurable turbidity was subcultured on TSA plates (alliquots were diluted to provide fewer than 300 CFU). Colonies that grew on the subculture after overnight incubation were counted and the number of CFU/mL in the samples were calculated. The calculated values were compared to the number of CFU/mL in the original inoculum.
They were also tested for the ability to permeabilize the outer membrane of Gram-negative bacteria, causing sensitization to hydrophobic antibiotics that cannot cross the outer membrane. The permeabilization of the outer membrane was measured using erythromycin and novobiocin.

[3] = system: Escherichia coli ATCC 25922; assay: MIC and MBC measurement; assay type: cell-based; settings: Escherichia coli; for MIC: read-out: MIC
Text: (§6) General: Microorganisms. Reference strains were purchased from the American Type Culture Collection (Rockville, MD) or Bactrol disks from Difeo Laboratories (Detroit, MI). The following specific ATCC strains were used: 10798 Escherichia coli, 25922 Escherichia coli, 13883 Klebsiella pneumoniae, 27853 Pseudomonas aeruginosa, 14028 Salmonella typhimurium, 29212 Enterococcus faecalis, 25923 Staphylococcus aureus, 19615 Streptococcus pyogenes, and 90028 Candida albicans. Bacterial strains were maintained on Mueller-Hinton agar plates, and Candida albicans was maintained on Sabouraud Dextrose agar plates.
(§7) Tryptic soy broth (TSB) was made by dissolving 27.5 grams of tryptic soy broth without dextrose (DIFCO Laboratories) in 1 liter of deionized water and sterilizing at 121 °C for 15 minutes. Solid agar (TSA) plates were made by dissolving 6.4 grams of tryptic soy broth and 12 grams of agar (purified grade, Fischer Scientific) in 800 mL of deionized water and sterilizing at 121 °C for 20 minutes. Aliquots (20 mL) of the homogeneous solution were then poured in sterile plastic petri dishes (100 x 15 mm, Fisher Scientific). Solutions of compounds were made by dissolving the HCl salt of the respective compound into an appropriate amount of deionized and sterilized water followed by microfiltration.
as §5, with “inoculum. […]” for “inoculum.”

[4] = system: Pseudomonas aeruginosa ATCC 27853; assay: MIC and MBC measurement; assay type: cell-based; settings: ATCC27853, Table 6, P. aureginosa (ATCC 27853)
Protocol: as §1, §2, §3

[5] = system: Pseudomonas aeruginosa ATCC 27853; assay: Sensitization to erythromycin, novobiocin or rifampicin (permeabilization, FIC); assay type: cell-based; settings: P. aureginosa (ATCC 27853)
Protocol: as §4, §5
Concentrations of 0.5, 1.0 or 3.0 µg/mL of these antibiotics were used, and the concentrations of the cholic acid derivatives required to inhibit bacterial growth of Gram-negative strains were determined.

[6] = system: Escherichia coli ATCC 25922; assay: as above; settings: for c: concentration of the compounds required to lower the MIC of erythromycin from 30 to 1 µg/mL: Table 16, with E. coli
Protocol: FICs can be performed by checkerboard titrations of compounds in one dimension of a microtiter plate, and of antibiotics in the other dimension, for example. The FIC is calculated by looking at the impact of one antibiotic on the MIC of the other and vice versa. […] As used herein, FIC can be determined as follows: FIC = (MIC(compound in combination))/(MIC(compound alone)) + (MIC(antibiotic in combination))/(MIC(antibiotic alone)) [formula]

[7] = system: Gram-negative bacteria; assay: MIC and permeabilization measurements, strain not stated (Table 14, Fig. 5); settings: in words
[8] = system: Staphylococcus aureus ATCC 25923; assay: MIC and MBC measurement; assay type: cell-based; settings: Staphylococcus aureus, ATCC25923; Table 16 (MIC^a); S. aureus (ATTC 25923); read-out: MIC
Text: as §6, §7
as §5, with “inoculum. […]” for “inoculum.”

[9] = Minimum hemolytic concentration (MHC); assay type: cell-based; settings: Table 16
Protocol: Minimum inhibition concentrations (MIC) and minimum hemolytic concentrations (MHC) were measured as described in Li et al., Antimicrob. Agents. Chemother., 1999, 43, 1347. […]

[10] = Stability (half-lives) in phosphate buffer, decomposition observed via HPLC; assay type: physicochemical; settings: 50 mM phosphate buffer, room temperature; for stabilities (half-lives) pH 2.0: pH 2.0, approximately 10 mM; for stabilities (half-lives) pH 7.0: pH 7.0, approximately 10 mM; for stabilities (half-lives) pH 12.0: pH 12.0, approximately 10 mM
Protocol: Compounds 352 - 354 were dissolved in 50 mM phosphate buffered water (pH 2.0, 7.0 or 12.0) at approximately 10 mM concentrations. […] These compounds were used since they contain a chromophore that facilitated monitoring of decomposition by absorption methods common in the HPLC apparatus used.

[11] = ATCC25922, Table 4, E. coli (ATCC 25922)
[12] = ATCC25922, Table 16 (MIC^b), E. coli (ATTC 25922)

- MIC [3, 12]: 30 µg/mL
- MIC [8]: 11 µg/mL
SMILES: C[C@H](CCC(=O)OCC[N+](C)(C)C)[C@H]1CC[C@H]2[C@@H]3[C@H](OC(=O)CCN)C[C@@H]4C[C@H](OC(=O)CCN)CC[C@]4(C)[C@H]3C[C@H](OC(=O)CCN)[C@]12C [Compound 325]
- MHC [9]: >200 µg/mL
- c: concentration of the compounds required to lower the MIC of erythromycin from 30 to 1 µg/mL [6]: 2.0 µg/mL

- stabilities (half-lives) pH 2.0 [10]: 33 days
- stabilities (half-lives) pH 7.0 [10]: 12 days
- stabilities (half-lives) pH 12.0 [10]: <30 minutes
SMILES: C[C@H](CCCN(C)Cc1ccccc1)[C@H]1CC[C@H]2[C@@H]3[C@H](OC(=O)CCCN)C[C@@H]4C[C@H](OC(=O)CCCN)CC[C@]4(C)[C@H]3C[C@H](OC(=O)CCCN)[C@]12C [Compound 354]

The next lines start with the molecule.

SMILES: C[C@H](CCCN(C)Cc1ccccc1)[C@H]1CC[C@H]2[C@@H]3[C@H](OCCNC(=N)N)C[C@@H]4C[C@H](OCCNC(=N)N)CC[C@]4(C)[C@H]3C[C@H](OCCNC(=N)N)[C@]12C [Compound 4]
- MBC ([1]; read-out: MBC): 10 µg/mL (≈ 13.3 µM)
- MIC ([1]; read-out: MIC): 5 µg/mL (≈ 6.64 µM)
- MBC ([2]; ATCC10798, Table 2, with erythromycin): 10 µg/mL
- MBC ([2]; ATCC10798, Table 3, with novobiocin): 10 µg/mL
- concentration required to lower the MIC of erythromycin from 70 µg/mL to 1 µg/mL ([2]; Table 2, with erythromycin): 1.5 µg/mL
- MBC [3, 11]: 9 µg/mL (≈ 12 µM)
- MIC [3, 11]: 6 µg/mL (≈ 7.97 µM)
- MBC [4]: 40 µg/mL (≈ 53.1 µM)
- MIC [4]: 15 µg/mL (≈ 19.9 µM)
- MBC ([5]; Pseudomonas aeruginosa, ATCC27853, Table 7, with erythromycin): 40 µg/mL
- concentration required to lower the MIC of erythromycin from 240 µg/mL to 5 µg/mL ([5]; Table 7, with erythromycin): 5 µg/mL
- concentration required to lower the MIC of novobiocin from >500 µg/mL to 1 µg/mL ([5]; Table 8, with novobiocin): 6 µg/mL
- MBC ([6]; Escherichia coli, ATCC25922): 5 µg/mL
- concentration required to lower the MIC of erythromycin from 60 µg/mL to 1 µg/mL ([6]; Table 5, E. coli (ATCC 25922), with erythromycin): 1 µg/mL

SMILES: C[C@H](CCCO)[C@H]1CC[C@H]2[C@@H]3[C@H](N)C[C@@H]4C[C@H](N)CC[C@]4(C)[C@H]3C[C@H](N)[C@]12C [Compound 206]
- activity as a permeabilizer [7]: ineffective as a permeabilizer

SMILES: C[C@H](CCCN(C)Cc1ccccc1)[C@H]1CC[C@H]2[C@@H]3[C@H](OC(=O)CN)C[C@@H]4C[C@H](OC(=O)CN)CC[C@]4(C)[C@H]3C[C@H](OC(=O)CN)[C@]12C [Compound 352]
- stabilities (half-lives) pH 2.0 [10]: >37 days
- stabilities (half-lives) pH 7.0 [10]: 28 days
- stabilities (half-lives) pH 12.0 [10]: <30 minutes

SMILES: C[C@H](CCCN)[C@H]1CC[C@H]2[C@@H]3[C@H](OCCCN)C[C@@H]4C[C@H](OCCCN)CC[C@]4(C)[C@H]3C[C@H](OCCCN)[C@]12C [Compound 135]
- MBC ([7]; text on Fig. 5): relatively high
- MIC ([7]; text on Fig. 5): relatively high

SMILES: C[C@H](CCC(=O)OCC[N+](C)(C)C)[C@H]1CC[C@H]2[C@@H]3[C@H](OC(=O)CCCN)C[C@@H]4C[C@H](OC(=O)CCCN)CC[C@]4(C)[C@H]3C[C@H](OC(=O)CCCN)[C@]12C [Compound 326]
- MIC [3, 12]: 23 µg/mL
- MIC [8]: 14 µg/mL
- MHC [9]: >200 µg/mL
- c: concentration of the compounds required to lower the MIC of erythromycin from 30 to 1 µg/mL [6]: 2.0 µg/mL
